As usually defined, the AC50 is the concentration at which the activity in the assay is half-maximal.

For assay [1], the target named is T1, human NPR1 (Homo sapiens, UniProt P16066).
T1 construct: host or cells: CHO-K1
T1 sequence (P16066 33-1061): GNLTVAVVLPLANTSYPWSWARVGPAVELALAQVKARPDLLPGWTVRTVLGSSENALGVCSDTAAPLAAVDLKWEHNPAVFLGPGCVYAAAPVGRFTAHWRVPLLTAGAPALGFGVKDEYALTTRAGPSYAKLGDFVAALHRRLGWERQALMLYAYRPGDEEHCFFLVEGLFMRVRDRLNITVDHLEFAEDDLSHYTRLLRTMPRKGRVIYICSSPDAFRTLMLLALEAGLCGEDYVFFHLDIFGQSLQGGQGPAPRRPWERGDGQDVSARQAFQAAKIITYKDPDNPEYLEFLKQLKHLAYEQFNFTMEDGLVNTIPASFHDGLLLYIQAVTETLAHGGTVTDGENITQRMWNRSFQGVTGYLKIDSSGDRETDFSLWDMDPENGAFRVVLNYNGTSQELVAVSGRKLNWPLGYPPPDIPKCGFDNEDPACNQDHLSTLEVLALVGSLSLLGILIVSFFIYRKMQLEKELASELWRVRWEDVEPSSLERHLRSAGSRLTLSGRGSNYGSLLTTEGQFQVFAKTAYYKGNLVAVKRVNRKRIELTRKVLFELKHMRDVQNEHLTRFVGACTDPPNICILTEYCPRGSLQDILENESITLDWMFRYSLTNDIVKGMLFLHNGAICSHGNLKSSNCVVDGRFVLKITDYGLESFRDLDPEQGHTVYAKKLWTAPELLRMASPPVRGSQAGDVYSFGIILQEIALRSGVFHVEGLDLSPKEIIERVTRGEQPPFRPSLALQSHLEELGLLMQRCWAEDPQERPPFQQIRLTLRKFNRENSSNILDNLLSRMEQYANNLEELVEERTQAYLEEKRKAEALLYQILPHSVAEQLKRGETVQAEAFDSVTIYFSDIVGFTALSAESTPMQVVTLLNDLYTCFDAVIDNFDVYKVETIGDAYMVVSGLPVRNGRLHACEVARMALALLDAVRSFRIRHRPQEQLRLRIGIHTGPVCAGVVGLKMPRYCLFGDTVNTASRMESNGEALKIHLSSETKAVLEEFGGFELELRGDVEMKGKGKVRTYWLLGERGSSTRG
Nature of the assay: Cellular cGMP production assay, human NPR1 expressing CHO-K1 cells (CisBio HTRF). It is filed as cell-based. The conditions noted are these: for AC50: cGMP production, 30 min at 37° C., 12-point dose-response from 30 μM; for Human NPR1 Amax (% of ANP): maximum cGMP production as percentage of the maximum cGMP produced with ANP. The method, boiled down:
(§1)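 Read-out was HTRF (excitation 317 nm, emission 665 nm), with cGMP quantified as Delta F against a calibrator standard curve. Beforehand, cells were exposed for 30 min at 37 °C to compound (30 μM top, twelve 3-fold steps) in IBMX-containing PBS/BSA buffer, then lysed.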
A general note: Time-resolved FRET reads energy transfer from a long-lived donor to a nearby acceptor.

Assay [2] has as its target monkey NPR1 (Macaca fascicularis, UniProt A0A7N9DBT9). Nature of the assay: Cellular cGMP production assay, monkey NPR1 expressing CHO-K1 cells (CisBio HTRF). It is filed as cell-based. The following applies: for Monkey NPR1 Amax (% of ANP): maximum cGMP production as percentage of the maximum cGMP produced with ANP. The method, boiled down:
as §1

Where [3] appears, read: cGMP production, monkey NPR1 CHO-K1 cells, 30 min at 37° C., 12-point dose-response from 30 μM, read-out: Monkey NPR1 AC50.

Where two headings read alike, the source gives them in different places.

Sequence of monkey NPR1 (A0A7N9DBT9 entry or part of it): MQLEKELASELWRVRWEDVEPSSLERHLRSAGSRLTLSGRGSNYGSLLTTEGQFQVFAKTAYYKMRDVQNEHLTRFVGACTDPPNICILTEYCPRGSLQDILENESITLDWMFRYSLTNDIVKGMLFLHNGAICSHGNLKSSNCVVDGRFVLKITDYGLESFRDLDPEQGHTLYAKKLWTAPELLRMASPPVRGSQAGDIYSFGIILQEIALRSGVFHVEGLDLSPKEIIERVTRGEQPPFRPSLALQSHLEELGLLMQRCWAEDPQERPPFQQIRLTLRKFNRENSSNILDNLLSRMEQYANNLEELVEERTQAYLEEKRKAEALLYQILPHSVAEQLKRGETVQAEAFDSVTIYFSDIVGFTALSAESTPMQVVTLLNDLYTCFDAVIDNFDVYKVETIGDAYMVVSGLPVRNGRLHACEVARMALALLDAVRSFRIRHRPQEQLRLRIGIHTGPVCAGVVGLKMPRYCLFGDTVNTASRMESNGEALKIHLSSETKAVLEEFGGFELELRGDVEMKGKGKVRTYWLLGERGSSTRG

For the compound `CC[C@@H](N(C)c1nc2c(c(N[C@@H](CN3C4CCCC3CCC4)c3ccnn3C)n1)C[C@H](c1ccccc1)CC2)C12CC(C(=O)O)(C1)C2` [Compound 172, 3-((R)-1-(((R)-4-(((S)-2-((1R,5R)-9-azabicyclo[3.3.1]nonan-9-yl)-1-(1-methyl-1H-pyrazol-5-yl)ethyl)amino)-6-phenyl-5,6,7,8-tetrahydroquinazolin-2-yl)(methyl)amino)propyl)bicyclo[1.1.1]pentane-1-carboxylic acid], in assay [1], the AC50 turned out to be 3680 nM and the “Human NPR1 Amax (% of ANP)” value is recorded as 94.632 % of ANP. The compound further had a half-maximal activity concentration (AC50) in assay [2] of 2580 nM. The “Monkey NPR1 Amax (% of ANP)” value in assay [2] (monkey NPR1 CHO-K1 cells) was 111.107 % of ANP.
Consider `CC[C@H]([C@H]1CC[C@H](C(=O)O)CC1)N(C)c1nc2c(c(N[C@H](c3cnn(C)c3)C(C)(C)N3CCCCC3)n1)C[C@H](c1ccccc1)CC2` [Compound 173, (1R,4r)-4-((R)-1-(methyl((R)-4-(((R)-2-methyl-1-(1-methyl-1H-pyrazol-4-yl)-2-(piperidin-1-yl)propyl)amino)-6-phenyl-5,6,7,8-tetrahydroquinazolin-2-yl)amino)propyl)cyclohexane-1-carboxylic acid], for which, in assay [1], the AC50 turned out to be 4200 nM and the “Human NPR1 Amax (% of ANP)” value is listed as 102.335 % of ANP. For the same compound, in assay [2] (setting [3]), the AC50 was 2580 nM. Further, the “Monkey NPR1 Amax (% of ANP)” value in assay [2] (monkey NPR1 CHO-K1 cells) is 102.204 % of ANP.
On to `CC[C@H]([C@H]1CC[C@H](C(=O)O)CC1)N(C)c1nc2c(c(N[C@@H](CN3CCC[C@H](C)C3)c3cnn(C)c3)n1)CN(c1cccc(C#N)c1)CC2` [Compound 174, (1R,4r)-4-((R)-1-((6-(3-cyanophenyl)-4-(((R)-1-(1-methyl-1H-pyrazol-4-yl)-2-((S)-3-methylpiperidin-1-yl)ethyl)amino)-5,6,7,8-tetrahydropyrido[4,3-d]pyrimidin-2-yl)(methyl)amino)propyl)cyclohexane-1-carboxylic acid], for which, in assay [1], the activity was half-maximal at 14 nM (AC50) and the “Human NPR1 Amax (% of ANP)” value is 93.788 % of ANP. Further, in assay [2] (setting [3]), the AC50 amounted to 10 nM. Also, in assay [2] (monkey NPR1 CHO-K1 cells), the “Monkey NPR1 Amax (% of ANP)” value is given as 97.462 % of ANP.

For the origin of these results see patent publication US12129246B1, “Hydroquinazoline derivatives for the treatment of a disease or disorder” (Novartis AG, priority 2023, dated 2024).
